Experimental data reported in US20180353512A1, “COMBINATION THERAPIES FOR TREATING B-CELL MALIGNANCIES” (GILEAD SCIENCES, INC., priority 2015, published 2018).
Where two headings read alike, the source gives them in different places. Values belong to the compound of their own block, whether it stands above or below them.

Legend:
Pfeiffer cells = assay: CellTiter-Glo cell viability assay, four days (Example 1A); type: cell-based; conditions: for EC50: Homo sapiens
Procedure: (§1) In vitro anti-proliferative activity of agents was assessed using CellTiter-Glo™ Assay (Promega), which quantifies cellular ATP level. Test compounds were dissolved in DMSO to prepare 10 mM stock solutions. […] For drug combination studies, a two or three fold horizontal serial dilution pattern was used for Compound B and combined with Idelalisib using a two, three, or four fold vertical serial dilution pattern. […] The final DMSO concentration in the test media was 0.2%. Each combination used replicates of four plates to generate sufficient data for evaluation of synergy scores. […] The assay growth medium for all lines was RPMI supplemented with 20% FBS and […] penicillin-streptomycin. Seeding density was optimized for growth rate over 96 hours for each cell line and was between 10,000-30,000 cells per well of 96 well plates. After four days incubation with agents at 37° C./5% CO2, the CellTiter-Glo™ assay was performed following the manufacturer's protocol. Relative luminescence units were quantified using a Biotek Synergy luminometer.
(§2) Data from a plate was excluded if either Z′<0.5 or the growth of the cell lines was less than one doubling in the four day assay period. Z′ was calculated using the formula: Z′=[1−((3(σstau+σDMSO))/(|μDMSO−μstau|)] where σstau and σDMSO are the standard deviation of the 100% inhibited staurosporine and 0% inhibited DMSO control wells, respectively. μDMSO and μstau are the mean of the […] control wells, respectively. The raw Cell Titer Glo signal was normalized according to the following formula: [(raw value)−(100% inhibited staurosporine control)]/[(DMSO control value)−(100% inhibited staurosporine control)].
(§3) EC50 was determined using GraphPad Prism or Dose Response software by fitting the data to a four parameters variable slope model. […] For combination studies, the EC50 at each test article concentration was determined from graphs of the EC50 of one compound at a fixed dose of second compound. The EC50 shift was calculated by taking the ratio of the EC50 of the single agent by the EC50 at the maximum dose of the second agent.
(§4) Synergy was analyzed using the MacSynergy II program, which calculates a theoretical additive value for the drug combination that is based on the values generated by each drug alone using the Bliss Independence mathematical model. The Bliss independence model assumes that each drug acts independently. The theoretical additive effect for each compound is calculated and then subtracted from the actual effect. Synergy is defined by greater than expected effects while antagonism is defined by less than expected effects. In this example, a synergy volume greater than 50 was considered significant. The EC50 values determined in drug combination studies represent a single experiment run in quadruplicate and therefore may differ slightly from the single agent EC50 values.

TMD-8 cells = assay: as above; type: cell-based; conditions: for EC50: Homo sapiens; for growth of cell line: single agent
Procedure: as §1, §2, §3, §4

Ri-1 cells = assay: as above; type: cell-based; conditions: for EC50: Ri-1, Ri-1; for growth of cell line: single agent
Procedure: as §1, §2, §3, §4

OCI-LY10 cells = assay: as above; type: cell-based; conditions: for EC50: Homo sapiens; for growth of cell line: OCI-LY10, single agent
Procedure: as §1, §2, §3, §4

p-S6 S235/236 = assay: Immunohistochemistry of TMD8 xenograft tumor samples; type: in vivo, mice; conditions: PI3Kδ inhibitor 5 mg/kg, Compound B 10 mg/kg; data not shown
Procedure: (§5) Paraffin sections of the tumor samples were prepared for immunohistochemistry. Slides were prepared with EZ Prep (Ventana Medical Systems) CC1 (Ventana Medical Systems) and rinsed with Reaction Buffer (Ventana Medical Systems). Slides were incubated with ChromoMap Inhibitor (Venatana Medical Systems) and rinsed a Reaction Buffer rinse before incubating with anti-pS6 (S235/236) rabbit monoclonal antibody (Cell Signaling Technology) at 0.02 ug/mL or anti-c-MYC rabbit monoclonal antibody (Abcam Inc.) at 0.3 ug/mL. After 1 hour at room temperature, the slides were incubated sequentially with Anti-Rabbit HQ (Ventana Medical Systems), Anti-HQ HRP (Ventana Medical Systems) hydrogen peroxide CM (Ventana Medical Systems), Copper CM (Ventana Medical Systems), and Hematoxylin II. Slides were imaged using the Leica AT2 digital slide scanner (Leica Microsystems Inc.) and documented in Digital Image Hub (DIH-SlidePath).

c-MYC = assay: as above; type: in vivo, mice; conditions: PI3Kδ inhibitor 5 mg/kg, Compound B 10 mg/kg; data not shown
Procedure: as §5

[1] = Compound B 45 nM, read-out: EC50 of Idelalisib when Combined with Compound B
[2] = TMD8, TMD-8, bound stated for three ABC-DLBCL cell lines, read-out: EC50, growth inhibition, single agent
[3] = bound stated for three ABC-DLBCL cell lines, read-out: EC50, growth inhibition, single agent
[4] = OCI-Ly10, OCI-LY10, bound stated for three ABC-DLBCL cell lines, read-out: EC50, growth inhibition, single agent
[5] = Idelalisib 0 nM, read-out: EC50 of Compound B in Combination with Idelalisib

Compound: CCC(Nc1ncnc2[nH]cnc12)c1nc2cccc(F)c2c(=O)n1-c1ccccc1 (centres unmarked) [Idelalisib, 2-(1-((9H-Purin-6-yl)amino)propyl)-5-fluoro-3-phenylquinazolin-4(3H)-one]
EC50 (Pfeiffer cells; [1]): 174 nM
Idelalisib EC50 shift (fold) (Pfeiffer cells; single agent EC50 / EC50 at maximum dose of Compound B): 1 fold
EC50 (TMD-8 cells; TMD8, TMD8, addition of Compound B at 6 nM, read-out: EC50 of idelalisib): 108 nM
EC50 (TMD-8 cells; TMD8, TMD8, addition of Compound B at 12 nM, read-out: EC50 of idelalisib): 34 nM
EC50 (TMD-8 cells; TMD8, TMD8, addition of Compound B at 25 nM, read-out: EC50 of idelalisib): 24 nM
EC50 (TMD-8 cells; TMD8, TMD8, without Compound B, read-out: EC50 of idelalisib): 254 nM
EC50 (TMD-8 cells; TMD8, TMD-8, Compound B 0 nM, read-out: EC50 of Idelalisib when Combined with Compound B): 254 nM
EC50 (TMD-8 cells; TMD8, TMD-8, Compound B 5 nM, read-out: EC50 of Idelalisib when Combined with Compound B): 130 nM
EC50 (TMD-8 cells; TMD8, TMD-8, Compound B 15 nM, read-out: EC50 of Idelalisib when Combined with Compound B): 32 nM
EC50 (TMD-8 cells; TMD8, TMD-8, Compound B 45 nM, read-out: EC50 of Idelalisib when Combined with Compound B): 24 nM
EC50 (TMD-8 cells; [2]): < 210 nM
growth of cell line (TMD-8 cells; TMD-8): inhibited the growth
Idelalisib EC50 shift (fold) (TMD-8 cells; TMD-8, single agent EC50 / EC50 at maximum dose of Compound B): 10.6 fold
EC50 (Ri-1 cells; Compound B 0 nM, read-out: EC50 of Idelalisib when Combined with Compound B): 442 nM
EC50 (Ri-1 cells; Compound B 5 nM, read-out: EC50 of Idelalisib when Combined with Compound B): 372 nM
EC50 (Ri-1 cells; Compound B 15 nM, read-out: EC50 of Idelalisib when Combined with Compound B): 372 nM
EC50 (Ri-1 cells; [1]): 372 nM
EC50 (Ri-1 cells; [3]): < 210 nM
growth of cell line (Ri-1 cells; Ri-1): inhibited the growth
Idelalisib EC50 shift (fold) (Ri-1 cells; Ri-1, single agent EC50 / EC50 at maximum dose of Compound B): 1.2 fold
EC50 (OCI-LY10 cells; OCI-Ly10, OCI-LY10, addition of Compound B at 6 nM, read-out: EC50 of idelalisib): 24 nM
EC50 (OCI-LY10 cells; OCI-Ly10, OCI-LY10, addition of Compound B at 12 nM, read-out: EC50 of idelalisib): 19 nM
EC50 (OCI-LY10 cells; OCI-Ly10, OCI-LY10, addition of Compound B at 25 nM, read-out: EC50 of idelalisib): 13 nM
EC50 (OCI-LY10 cells; [4]): < 210 nM
EC50 (OCI-LY10 cells; OCI-Ly10, OCI-LY10, without Compound B, read-out: EC50 of idelalisib): 122 nM
EC50 (OCI-LY10 cells; OCI-Ly10, OCI-LY-10, Compound B 0 nM, read-out: EC50 of Idelalisib when Combined with Compound B): 440 nM
EC50 (OCI-LY10 cells; OCI-Ly10, OCI-LY-10, Compound B 5 nM, read-out: EC50 of Idelalisib when Combined with Compound B): 38 nM
EC50 (OCI-LY10 cells; OCI-Ly10, OCI-LY-10, Compound B 15 nM, read-out: EC50 of Idelalisib when Combined with Compound B): 22 nM
EC50 (OCI-LY10 cells; OCI-Ly10, OCI-LY-10, Compound B 45 nM, read-out: EC50 of Idelalisib when Combined with Compound B): 5 nM
growth of cell line (OCI-LY10 cells): inhibited the growth
Idelalisib EC50 shift (fold) (OCI-LY10 cells; OCI-LY-10, single agent EC50 / EC50 at maximum dose of Compound B): 88 fold

EC50 (OCI-LY10 cells; [4]): < 26 nM
EC50 (OCI-LY10 cells; OCI-Ly10, OCI-LY-10, Idelalisib 0 nM, read-out: EC50 of Compound B in Combination with Idelalisib): 6 nM
EC50 (OCI-LY10 cells; OCI-Ly10, OCI-LY-10, Idelalisib 156 nM, read-out: EC50 of Compound B in Combination with Idelalisib): 3 nM
EC50 (OCI-LY10 cells; OCI-Ly10, OCI-LY-10, Idelalisib 625 nM, read-out: EC50 of Compound B in Combination with Idelalisib): 3 nM
Compound B EC50 shift (fold) (OCI-LY10 cells; OCI-LY-10, single agent EC50 / EC50 at maximum dose of Idelalisib): 2 fold
Compound: CC#CC(=O)N1CC[C@@H](n2c(=O)n(-c3ccc(Oc4ccccc4)cc3)c3c(N)ncnc32)C1 [Compound B, 6-amino-9-[(3R)-1-(2-butynoyl)-3-pyrrolidinyl]-7-(4-phenoxyphenyl)-7,9-dihydro-8H-purin-8-one]
EC50 (Pfeiffer cells; [5]): > 10000 nM
Compound B EC50 shift (fold) (Pfeiffer cells; No EC50 shift observed at up to 2.5 μM): None^c
EC50 (TMD-8 cells; TMD8, TMD-8, Idelalisib 0 nM, read-out: EC50 of Compound B in Combination with Idelalisib): 11 nM
EC50 (TMD-8 cells; TMD8, TMD-8, Idelalisib 156 nM, read-out: EC50 of Compound B in Combination with Idelalisib): 5 nM
EC50 (TMD-8 cells; TMD8, TMD-8, Idelalisib 625 nM, read-out: EC50 of Compound B in Combination with Idelalisib): 4 nM
EC50 (TMD-8 cells; [2]): < 26 nM
growth of cell line (TMD-8 cells; TMD-8): inhibited the growth
Compound B EC50 shift (fold) (TMD-8 cells; TMD-8, single agent EC50 / EC50 at maximum dose of Idelalisib): 2.75 fold
EC50 (Ri-1 cells; [5]): 5 nM
EC50 (Ri-1 cells; Idelalisib 156 nM, read-out: EC50 of Compound B in Combination with Idelalisib): 2 nM
EC50 (Ri-1 cells; Idelalisib 625 nM, read-out: EC50 of Compound B in Combination with Idelalisib): 2 nM
EC50 (Ri-1 cells; [3]): < 26 nM
growth of cell line (Ri-1 cells; Ri-1): inhibited the growth
Compound B EC50 shift (fold) (Ri-1 cells; Ri-1, single agent EC50 / EC50 at maximum dose of Idelalisib): 2.5 fold
growth of cell line (OCI-LY10 cells): inhibited the growth
p-S6 signal, IHC (p-S6 S235/236): did not reduce
c-MYC signal, IHC (c-MYC): did not reduce
